By IC50 is commonly meant the concentration that gives 50% inhibition.

In one data set the test system is MET. The note with it: read-out: IC50 for MET; estimated; cited from earlier work.
A further data set relates to VEGFR2. The note with it: read-out: IC50 for VEGFR2; estimated; cited from earlier work.
A further data set deals with T1, CYP3A4 + cyt b5 (Homo sapiens, UniProt P08684).
T1 construct: purchased Corning (Corning, NY, USA); host or cells: insect cells (baculovirus)
As to the kind of experiment: Cabozantinib oxidation by recombinant CYP3A4 in the presence of cyt b5 (Supersomes). The note with it: Supersomes with cyt b5 vs without, 50 µM cabozantinib. Format: in vitro ADME. The source says:
Cabozantinib was from MedChemExpress (Monmouth Junction, NJ, USA). Standard of cabozantinib N-oxide was purchased from Toronto Research Chemicals (Toronto, Canada). Ketoconazole, NADPH and other chemicals were all purchased from Merck (Darnstadt, Germany). The purity of all chemicals met the standards of American Chemical Society, unless otherwise noted. Male human hepatic microsomes (pooled sample) (sample LOT: 3043885) were from Gentest Corp. (Woburn, MA, USA). Microsomes from livers of twelve human donors were obtained from Gentest Corp. (Woburn, MA, USA) (Lot. no. HG43-1, HG103, HG74, HG93, HG24, HG27, HG23, HG32, HK31, HK34, HG03 and HG42). Each human microsomal sample was characterized for CYP, FMO, total protein contents and specific CYP activities by Gentest Corp. and reanalyzed by us by assays described in the protocols of Gentest Corp. Our data were similar to those reported by Gentest Corp. (Table 1). Human recombinant enzymes were used in the forms of Supersomes™ and obtained from Corning (Corning, NY, USA). In Supersomes™, microsomal fractions were isolated from insect cells that were transfected with baculovirus constructs containing cDNA of human CYP enzymes (CYP1A1/2, 1B1, 2A6, 2B6, 2C8/9/18/19/, 2D6, 2E1, 3A4). The Supersomes™ also express NADPH:CYP oxidoreductase (POR). However, because they are microsomes (particles of broken endoplasmic reticulum), other enzymes (proteins) of the endoplasmic reticulum membrane (like NADH:cytochrome b5 reductase and cytochrome b5) are also expressed at basal levels in these Supersomes™. We also utilized Supersomes™, which overexpressed cytochrome b5, in a molar ratio of CYP to cytochrome b5 of 1 to 5. In Supersomes™, where cytochrome b5 was not overexpressed (see above), pure cytochrome b5 was added to reach a molar ratio of CYP to cytochrome b5 of 1 to 5. Reconstitution of Supersomes™ with purified cytochrome b5 was performed as described previously. Human recombinant FMOs and AO were also used in the forms of Supersomes™ (Gentest Corp., Woburn, MA, USA). These microsomal fractions were isolated from insect cells that are transfected with baculovirus constructs containing cDNA of human FMO1, FMO3, FMO5 or AO enzymes.
The reaction was initiated by adding NADPH. In control incubations, either microsomes or CYP (FMO, AO) or NADPH were omitted. […] The reaction was stopped by extraction with ethyl acetate (2 × 1 mL). […] Cabozantinib metabolites separated by HPLC were characterized by mass spectroscopy (see further details below).

A further data set addresses T2, FMO5 (Homo sapiens, UniProt P49326).
T2 construct: purchased Gentest Corp., Woburn, MA, USA; host or cells: insect cells (baculovirus)
T2 sequence (P49326 1-533): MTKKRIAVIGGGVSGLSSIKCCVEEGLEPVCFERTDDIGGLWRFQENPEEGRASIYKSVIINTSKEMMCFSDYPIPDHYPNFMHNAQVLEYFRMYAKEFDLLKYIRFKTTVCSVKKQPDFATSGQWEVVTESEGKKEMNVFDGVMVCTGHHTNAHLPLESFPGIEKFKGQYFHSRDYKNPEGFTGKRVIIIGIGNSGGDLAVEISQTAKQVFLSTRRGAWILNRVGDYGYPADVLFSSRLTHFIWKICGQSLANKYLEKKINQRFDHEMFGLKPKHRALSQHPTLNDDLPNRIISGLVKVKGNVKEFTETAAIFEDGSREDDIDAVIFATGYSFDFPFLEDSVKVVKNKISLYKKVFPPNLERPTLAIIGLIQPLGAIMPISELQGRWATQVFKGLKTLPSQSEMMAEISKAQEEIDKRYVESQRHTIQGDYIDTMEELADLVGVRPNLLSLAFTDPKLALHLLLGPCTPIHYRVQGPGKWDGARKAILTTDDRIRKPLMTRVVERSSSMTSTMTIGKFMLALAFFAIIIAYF
Nature of the data set: Oxidation of cabozantinib by recombinant FMO5. Format: in vitro ADME. The note with it: human recombinant enzyme, data not shown.

A further data set deals with T3, FMO1 (Homo sapiens, UniProt Q01740).
T3 construct: purchased Gentest Corp., Woburn, MA, USA; host or cells: insect cells (baculovirus)
T3 sequence (Q01740 1-532): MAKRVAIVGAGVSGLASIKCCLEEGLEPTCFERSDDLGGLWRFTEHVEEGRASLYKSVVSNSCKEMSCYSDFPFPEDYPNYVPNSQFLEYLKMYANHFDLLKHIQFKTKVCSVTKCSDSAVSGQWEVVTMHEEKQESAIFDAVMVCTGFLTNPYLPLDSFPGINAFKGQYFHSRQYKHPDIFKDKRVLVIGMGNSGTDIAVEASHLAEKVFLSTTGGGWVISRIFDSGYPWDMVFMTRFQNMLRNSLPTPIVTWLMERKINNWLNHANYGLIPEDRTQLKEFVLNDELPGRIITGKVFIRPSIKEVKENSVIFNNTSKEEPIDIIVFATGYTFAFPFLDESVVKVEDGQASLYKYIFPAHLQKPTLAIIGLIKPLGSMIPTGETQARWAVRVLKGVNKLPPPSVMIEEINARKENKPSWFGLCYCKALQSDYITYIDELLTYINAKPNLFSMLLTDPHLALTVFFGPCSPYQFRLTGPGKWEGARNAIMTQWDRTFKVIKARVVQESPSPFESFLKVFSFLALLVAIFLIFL
Nature of the data set: Oxidation of cabozantinib by recombinant FMO1. The note with it: human recombinant enzyme, data not shown. Format: in vitro ADME. The source says: The purity of all chemicals met the standards of American Chemical Society, unless otherwise noted. […] Microsomes from livers of twelve human donors were obtained from Gentest Corp. (Woburn, MA, USA) (Lot. no. HG43-1, HG103, HG74, HG93, HG24, HG27, HG23, HG32, HK31, HK34, HG03 and HG42). […] Human recombinant enzymes were used in the forms of Supersomes™ and obtained from Corning (Corning, NY, USA). In Supersomes™, microsomal fractions were isolated from insect cells that were transfected with baculovirus constructs containing cDNA of human CYP enzymes (CYP1A1/2, 1B1, 2A6, 2B6, 2C8/9/18/19/, 2D6, 2E1, 3A4). The Supersomes™ also express NADPH:CYP oxidoreductase (POR). However, because they are microsomes (particles of broken endoplasmic reticulum), other enzymes (proteins) of the endoplasmic reticulum membrane (like NADH:cytochrome b5 reductase and cytochrome b5) are also expressed at basal levels in these Supersomes™. We also utilized Supersomes™, which overexpressed cytochrome b5, in a molar ratio of CYP to cytochrome b5 of 1 to 5. In Supersomes™, where cytochrome b5 was not overexpressed (see above), pure cytochrome b5 was added to reach a molar ratio of CYP to cytochrome b5 of 1 to 5. Reconstitution of Supersomes™ with purified cytochrome b5 was performed as described previously. Human recombinant FMOs and AO were also used in the forms of Supersomes™ (Gentest Corp., Woburn, MA, USA).

Molecules are shown by their SMILES.

T1 sequence (P08684 whole entry): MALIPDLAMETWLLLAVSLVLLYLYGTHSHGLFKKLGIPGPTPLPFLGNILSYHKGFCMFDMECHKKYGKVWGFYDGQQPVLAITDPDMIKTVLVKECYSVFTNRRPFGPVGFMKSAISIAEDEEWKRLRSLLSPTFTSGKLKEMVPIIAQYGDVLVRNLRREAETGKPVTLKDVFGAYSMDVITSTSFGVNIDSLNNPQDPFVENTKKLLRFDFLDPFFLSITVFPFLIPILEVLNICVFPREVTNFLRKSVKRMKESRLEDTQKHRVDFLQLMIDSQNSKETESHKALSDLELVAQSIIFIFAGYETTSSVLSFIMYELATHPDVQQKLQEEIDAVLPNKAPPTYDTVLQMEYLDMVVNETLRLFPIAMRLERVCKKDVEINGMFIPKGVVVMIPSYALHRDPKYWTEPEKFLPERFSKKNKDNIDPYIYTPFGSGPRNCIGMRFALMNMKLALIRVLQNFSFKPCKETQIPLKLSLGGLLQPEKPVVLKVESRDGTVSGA

In the case of `COc1cc2nccc(Oc3ccc(NC(=O)C4(C(=O)Nc5ccc(F)cc5)CC4)cc3)c2cc1OC` [cabozantinib, N′1-{4-[(6,7-dimethoxyquinolin-4-yl)oxy]phenyl}-N1-(4-fluorophenyl)cyclopropane-1,1-dicarboxamide], the figures for the 50% inhibitory concentration (IC50) in the data set on MET and with VEGFR2 were 2 nM and […], respectively. Also, at CYP3A4 + cyt b5, the “Increase of oxidation / metabolite formation by co-expression of cyt b5 with CYP3A4” value is “more than 2.9 fold”. Moreover, the “Oxidation of cabozantinib by FMO 5” value on FMO5 is recorded as “ineffective”. Moreover, on FMO1, the “Oxidation of cabozantinib by FMO 1” value is reported as “ineffective”.

The record behind these values is article PMC7759869 (Biomedicines, 2020).
